Assay results from the supplement of paper PMC8671470.

Legend:
Assay in all cases: cell viability (% survival relative to DMSO control, bortezomib = 0%); higher = less cytotoxic
Conditions in all cases: 72 h
LAMA-84 = system: LAMA-84
Outline: (§1)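 Reported values are percent survival from duplicate wells, averaged. Fifteen myeloid leukaemia cell lines were treated in 384-well plates with compounds at 1, 10, 100, 1000 or 10000 nM for 72 h at 37 °C in 5% CO2. Signals from CellTiter-Glo luminescence were scaled with vehicle as 100% and a 10 µM positive control as 0%.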

KCL-22 = system: KCL-22
Outline: as §1

HEL = system: HEL
Outline: as §1

NOMO-1 = system: NOMO-1
Outline: as §1

| Structure (SMILES) | cell viability (LAMA-84; 1 nM) [%] | cell viability (LAMA-84; 10 nM) [%] | cell viability (LAMA-84; 100 nM) [%] | cell viability (LAMA-84; 1000 nM) [%] | cell viability (LAMA-84; 10000 nM) [%] | cell viability (KCL-22; 1 nM) [%] | cell viability (KCL-22; 10 nM) [%] | cell viability (KCL-22; 100 nM) [%] | cell viability (KCL-22; 1000 nM) [%] | cell viability (KCL-22; 10000 nM) [%] | cell viability (HEL; 1 nM) [%] | cell viability (HEL; 10 nM) [%] | cell viability (HEL; 100 nM) [%] | cell viability (HEL; 1000 nM) [%] | cell viability (HEL; 10000 nM) [%] | cell viability (NOMO-1; 1 nM) [%] | cell viability (NOMO-1; 10 nM) [%] | cell viability (NOMO-1; 100 nM) [%] | cell viability (NOMO-1; 1000 nM) [%] | cell viability (NOMO-1; 10000 nM) [%] |
| --- | --- | --- | --- | --- | --- | --- | --- | --- | --- | --- | --- | --- | --- | --- | --- | --- | --- | --- | --- | --- |
| CC(Cc1ccc(O)c(O)c1)C(C)Cc1ccc(O)c(O)c1 (stereo not given) [Masoprocol] | 95.8 | 95.7 | 106 | 95.5 | 94 | 99.8 | 85.9 | 120 | 108 | 66.2 | 114 | 106 | 137 | 114 | 79.8 | 97 | 104 | 101 | 111 | 56.2 |
| N[C@](CCCCB(O)O)(CCN1CCCCC1)C(=O)O [Arginase inhibitor 1] | 99.9 | 102 | 96.1 | 102 | 88.9 | 97 | 84.6 | 104 | 102 | 90.9 | 109 | 96.7 | 101 | 90.4 | 95.4 | 91.3 | 94.5 | 103 | 96.4 | 93.9 |
| [N-]=[N+]=CC(=O)CC[C@H](N)C(=O)O [6-Diazo-5-oxo-L-norleucine] | 98.5 | 98.8 | 101 | 97.7 | 100 | 94.7 | 104 | 109 | 109 | 101 | 98.6 | 109 | 98.5 | 95.1 | 96.6 | 98.9 | 99.9 | 104 | 97.1 | 106 |
| O=C(COc1ccc(C(=O)c2ccccc2)cc1)NC1CCN(Cc2ccccc2)CC1 [AdipoRon] | 96.9 | 102 | 93.8 | 96.7 | 61.1 | 102 | 110 | 102 | 108 | 76.3 | 94.5 | 96.6 | 96.6 | 97.5 | 85.4 | 102 | 107 | 96.3 | 96.7 | 91.1 |
| CCN(CC)CCN(Cc1ccc(-c2ccc(C(F)(F)F)cc2)cc1)C(=O)Cn1c(SCc2ccc(F)cc2)nc(=O)c2c1CCC2 [Darapladib] | 101 | 83.5 | 99.7 | 80.6 | -0.44 | 112 | 113 | 114 | 86.3 | -0.547 | 99.5 | 103 | 105 | 91.1 | -0.527 | 98.6 | 98.8 | 97 | 93.8 | -0.418 |
| O=C1Nc2ccccc2/C1=C\NCCc1ccc(O)c(O)c1 [AC1NZZMF] | 107 | 108 | 102 | 101 | 107 | 79.2 | 90.9 | 102 | 106 | 94.3 | 101 | 99.5 | 104 | 112 | 96.9 | 105 | 111 | 98 | 113 | 99.9 |
| CCOC(=O)[C@@]1(CCCCCCOc2ccc(Cl)cc2)CO1 [Etomoxir] | 94.9 | 110 | 106 | 58.5 | 62.7 | 104 | 112 | 116 | 101 | 78.9 | 105 | 99.6 | 105 | 93.3 | 84.5 | 99.5 | 101 | 104 | 92.1 | 102 |
| Cc1ccc(S(=O)(=O)NC2c3ccccc3Oc3ccccc32)cc1 [AH-7614] | 93.7 | 98.8 | 101 | 95.5 | 105 | 75.6 | 84 | 128 | 101 | 80.8 | 107 | 96.9 | 103 | 107 | 98.9 | 102 | 102 | 104 | 97.1 | 103 |
| O=P(O)(O)C(O)(Cn1ccnc1)P(=O)(O)O [Zoledronic acid] | 99.5 | 104 | 100 | 98.2 | 99.2 | 107 | 103 | 102 | 104 | 97.4 | 90.6 | 92.7 | 101 | 94.9 | 99.3 | 98.8 | 101 | 95.6 | 103 | 94.6 |
| c1ccc2c(c1)OCC(=C1NCCN1)O2 [Idazoxan] | 101 | 98.4 | 89 | 96.5 | 93 | 105 | 104 | 78.6 | 91 | 87.4 | 96.4 | 112 | 85.6 | 95.1 | 90.4 | 98.9 | 104 | 94.4 | 92.2 | 89.3 |
| C[C@]12CC[C@H](O)CC1=CC[C@@H]1[C@@H]2CC[C@]2(C)C(c3cccnc3)=CC[C@@H]12 [Abiraterone] | 105 | 106 | 94.1 | 102 | 108 | 99.6 | 92 | 111 | 112 | 87.2 | 113 | 109 | 110 | 112 | 111 | 106 | 104 | 97.6 | 112 | 108 |
